# Like-named read-outs stand apart in the source and are kept apart here. Where a SMILES comes first, the peptide text is derived from it. Bridges are numbered along the chain shown (N, C = ends). Where no end group is shown, it is not given here. [ ]: non-standard residue; d: D form. The star is where a group is joined. Hexadecanoyl(3R-OH) = CCCCCCCCCCCCC[C@@H](O)CC(=O)*; Tetradecanoyl(3R-OH) = CCCCCCCCCCC[C@@H](O)CC(=O)*; X1 = CC[C@H](C)CCCCC(=O)*; Dab = NCC[C@H](N)C(=O)O
# Key:
# X. nematophila WT = type: cell-based, Xenorhabdus nematophila F1
# Procedure: (§1) Bacteria were routinely grown in Lysogeny Broth (Sigma-Aldrich) medium at 28°C (Xenorhabdus, S. maltophilia, P. protegens, Ochrobactrum sp., Achromobacter sp., A. faecalis, Pseudochrobactrum sp., Brevundimonas sp., E. mundtii, and D. rugosa) or 37°C (Escherichia coli and M. luteus). When required, antibiotics were used at the following final concentrations: gentamicin (Sigma-Aldrich), 20 µg mL^−1 and chloramphenicol (Sigma-Aldrich), 20 µg mL^−1 for E. coli strains and 15 µg mL^−1 for X. nematophila (or 8 µg mL^−1 for allelic exchange).
# (§2) MICs were determined in accordance with CLSI guidelines ([73]) with the following modifications: 5 mL of MHB broth (Bio-Rad) was inoculated with an overnight culture in LB broth and grown to a 0.6 < OD600 < 0.9. The inoculum for the microplate was prepared as described in the CLSI guide, with dilution in MHB to approximately 10^4 CFU mL^−1. Ninety-six-well low-binding plates were incubated for 48 h at 28°C with slow shaking. The peptides used in the analyses were supplied by the following providers: cecropin A (Sigma-Aldrich), cecropin B1 (NeoMPS S.A.) ([74]), cecropin C (Proteogenix), cecropin P1 (Sigma-Aldrich), drosocin (Eurogentec), colistin (Sigma-Aldrich), polymyxin B (Sigma-Aldrich), and NOSO 95C (odilorhabdin, Nosopharm S.A.). Synthetic PAX1′, PAX2′, and PAX7 were provided by the SynBio3 platform (IBMM, Montpellier, France), and their structure is shown in Fig. S1.
# X. nematophila ∆ngrA = experiment: MIC assay of antimicrobial peptides on X. nematophila ∆ngrA; type: cell-based, Xenorhabdus nematophila F1; conditions: CLSI with modifications, MHB broth, approx. 10^4 CFU mL^−1, 96-well low-binding plates, 48 h at 28°C, slow shaking
# Procedure: as §1, §2
# Achromobacter sp. D7.1 = type: cell-based; conditions: 48 h
# Procedure: as §1, §2
# Alcaligenes faecalis SC = type: cell-based; conditions: 48 h
# Procedure: as §1, §2
# Brevundimonas sp. ALL3 = type: cell-based; conditions: 48 h
# Procedure: as §1, §2
# Diutina rugosa GC = type: cell-based; conditions: 48 h
# Procedure: as §1, §2
# Enterococcus mundtii SP = type: cell-based; conditions: 48 h
# Procedure: as §1, §2
# [1] = test system: Micrococcus luteus CIP103430; type: cell-based; conditions: CIP103430, 48 h
# Procedure: as §1, §2
# Ochrobactrum sp. ALL4 = type: cell-based; conditions: 48 h
# Procedure: as §1, §2
# [2] = test system: Pseudochrobactrum sp. AL3; type: cell-based; conditions: 48 h
# Procedure: as §1, §2
# [3] = test system: Pseudomonas protegens PPSC10; type: cell-based; conditions: 48 h
# Procedure: as §1, §2
# [4] = test system: Stenotrophomonas maltophilia ALL5; type: cell-based; conditions: 48 h
# Procedure: as §1, §2
# X. nematophila ∆paxA = type: cell-based, Xenorhabdus nematophila F1; conditions: CLSI with modifications, MHB broth, approx. 10^4 CFU mL^−1, 96-well low-binding plates, 48 h at 28°C, slow shaking
# Procedure: as §1
# The ΔpaxA mutant was constructed using the same experimental strategy as for the construction of the ΔngrA mutant from the WT strain X. nematophila F1 ([37]). The upstream and downstream regions of the paxA gene were amplified by PCR with the L-PCR1-paxA-SalI and R-PCR1-paxA-BamHI primers for the upstream region (621 bp) and the L-PCR2-paxA-BamHI and R-PCR2-paxA-SpeI primers for the downstream region (601 bp). The two fragments obtained were inserted, together with the 3.8 kb BamHI fragment ΩCam cassette from pHP45-ΩCm, conferring resistance to chloramphenicol, into pJQ200SK digested with SalI and SpeI for insertion of the ΩCam cassette between the two PCR fragments. The resulting plasmid, pJQ-paxA::ΩCm, was used to transform E. coli WM3064 and was introduced into X. nematophila F1 by mating. Allelic exchange was performed as previously described ([68]). ΩCam insertion was confirmed by PCR analysis using primers L-paxTA and R-verif-pax. The absence of PAX peptide products was assessed by mass spectrometry analysis, as described below. The clone obtained was called ΔpaxA.
# as §2
# [5] = X. nematophila WT, CLSI with modifications, MHB broth, approx. 10^4 CFU mL^−1, 96-well low-binding plates, 48 h at 28°C, slow shaking
Compound,Minimum inhibitory concentration (X. nematophila WT; [5]),Minimum inhibitory concentration (X. nematophila ∆ngrA),Minimum inhibitory concentration (Achromobacter sp. D7.1),Minimum inhibitory concentration (Alcaligenes faecalis SC),Minimum inhibitory concentration (Brevundimonas sp. ALL3),Minimum inhibitory concentration (Diutina rugosa GC),Minimum inhibitory concentration (Enterococcus mundtii SP),Minimum inhibitory concentration [1],Minimum inhibitory concentration (Ochrobactrum sp. ALL4),Minimum inhibitory concentration [2],Minimum inhibitory concentration [3],Minimum inhibitory concentration [4],Minimum inhibitory concentration (X. nematophila WT; 48 h),Minimum inhibitory concentration (X. nematophila ∆paxA)
"SWLSKTAKKLENSAKKRISEGIAIAIQGGPR [Cecropin P1, cecropin P1]",>12.5 µg/mL,12.5 µg/mL,,,,,,,,,,,,
CCCCCCCCCCCCC[C@@H](O)CC(=O)NCC(=O)N[C@@H](CCCCN)C(=O)N[C@@H]1CCCCNC(=O)[C@H](CCCCN)NC(=O)[C@@H](CCCCN)NC(=O)[C@@H](CCCCN)NC(=O)[C@H](CCCCN)NC1=O [Synthetic PAX7] ({Hexadecanoyl(3R-OH)}-GK[dK]K[dK][dK]K; lactam 3-C (inferred)),187.5 µg/mL,375 µg/mL,62.5 µg/mL,125 µg/mL,31.25 µg/mL,62.5 µg/mL,15.63 µg/mL,0.49 µg/mL,62.5 µg/mL,62.5 µg/mL,62.5 µg/mL,125 µg/mL,,
CCCCCCCCCCC[C@@H](O)CC(=O)NCC(=O)N[C@@H](CCCNC(=N)N)C(=O)N[C@@H]1CCCCNC(=O)[C@H](CCCCN)NC(=O)[C@@H](CCCCN)NC(=O)[C@@H](CCCCN)NC(=O)[C@H](CCCCN)NC1=O [Synthetic PAX2′] ({Tetradecanoyl(3R-OH)}-GR[dK]K[dK][dK]K; lactam 3-C (inferred)),,375 µg/mL,62.5 µg/mL,125 µg/mL,62.5 µg/mL,62.5 µg/mL,31.25 µg/mL,1.95 µg/mL,62.5 µg/mL,125 µg/mL,125 µg/mL,125 µg/mL,187.5 µg/mL,375 µg/mL
cecropin B1,6.25 µg/mL,6.25 µg/mL,,,,,,,,,,,,6.25 µg/mL
"CC[C@H](C)CCCCC(=O)N[C@@H](CCN)C(=O)N[C@H](C(=O)N[C@@H](CCN)C(=O)N[C@H]1CCNC(=O)[C@H]([C@@H](C)O)NC(=O)[C@H](CCN)NC(=O)[C@H](CCN)NC(=O)[C@H](CC(C)C)NC(=O)[C@@H](Cc2ccccc2)NC(=O)[C@H](CCN)NC1=O)[C@@H](C)O [Polymyxin B, polymyxin B] (X1-[Dab]T[Dab][Dab][Dab][dF]L[Dab][Dab]T; lactam 4-C (inferred); N-terminus assumed)",0.245 µg/mL,0.245 µg/mL,,,,,,,,,,,,0.245 µg/mL
cecropin C,12.5 µg/mL,25 µg/mL,,,,,,,,,,,,12.5 µg/mL
"GKPRPYSPRPTSHPRPIRV [Drosocin, drosocin]",,,,,,,,,,,,,>50 µg/mL,
CCCCCCCCCCC[C@@H](O)CC(=O)NCC(=O)N[C@@H](CCCCN)C(=O)N[C@@H]1CCCCNC(=O)[C@H](CCCCN)NC(=O)[C@@H](CCCCN)NC(=O)[C@@H](CCCCN)NC(=O)[C@H](CCCCN)NC1=O [Synthetic PAX1′] ({Tetradecanoyl(3R-OH)}-GK[dK]K[dK][dK]K; lactam 3-C (inferred)),,,> 250 µg/mL,> 250 µg/mL,31.25 µg/mL,25 µg/mL,125 µg/mL,3.9 µg/mL,> 250 µg/mL,> 250 µg/mL,> 250 µg/mL,> 250 µg/mL,">1,500 µg mL^−1",
"CC[C@H](C)CCCCC(=O)N[C@@H](CCN)C(=O)N[C@H](C(=O)N[C@@H](CCN)C(=O)N[C@H]1CCNC(=O)[C@H]([C@@H](C)O)NC(=O)[C@H](CCN)NC(=O)[C@H](CCN)NC(=O)[C@H](CC(C)C)NC(=O)[C@@H](CC(C)C)NC(=O)[C@H](CCN)NC1=O)[C@@H](C)O [Colistin, colistin] (X1-[Dab]T[Dab][Dab][Dab][dL]L[Dab][Dab]T; lactam 4-C (inferred); N-terminus assumed)",3.9 µg/mL,3.9 µg/mL,,,,,,,,,,,,1.95 µg/mL

# Source: publication PMC12542672, “Pleiotropic role of PAX cyclolipopeptides in the Xenorhabdus bacterium mutualistically associated with entomopathogenic nematodes” (Applied and Environmental Microbiology, 2025)
